US8518956B2, “1-(1-(2-ethoxyethyl)-3-ethyl-7-(4-methylpyridin-2-ylamino)-1H-pyrazolo[4,3-d]pyrimidin-5-yl) piperidine-4-carboxylic acid and salts thereof” (priority 2005, dated 2013)
pIC50: −log10 of the molar value.

Columns and labels:
PDE11 enzyme = target: T1, PDE11 enzyme (Homo sapiens, UniProt Q9HCR9, DUP921-921); assay: Method 3: Human Recombinant PDE11 Enzyme Inhibition Scintillation Proximity Assay (SPA); assay type: biochemical; conditions: Table F, WO2004096810 examples; read-out: METHOD 3: PDE11 IC50
T1 construct: FLAG (N); made in house; host or cells: Sf9 insect cells (baculovirus, pFastBac)
T1 sequence (Q9HCR9 with tags, fused parts or gaps DUP921-921 limits assumed): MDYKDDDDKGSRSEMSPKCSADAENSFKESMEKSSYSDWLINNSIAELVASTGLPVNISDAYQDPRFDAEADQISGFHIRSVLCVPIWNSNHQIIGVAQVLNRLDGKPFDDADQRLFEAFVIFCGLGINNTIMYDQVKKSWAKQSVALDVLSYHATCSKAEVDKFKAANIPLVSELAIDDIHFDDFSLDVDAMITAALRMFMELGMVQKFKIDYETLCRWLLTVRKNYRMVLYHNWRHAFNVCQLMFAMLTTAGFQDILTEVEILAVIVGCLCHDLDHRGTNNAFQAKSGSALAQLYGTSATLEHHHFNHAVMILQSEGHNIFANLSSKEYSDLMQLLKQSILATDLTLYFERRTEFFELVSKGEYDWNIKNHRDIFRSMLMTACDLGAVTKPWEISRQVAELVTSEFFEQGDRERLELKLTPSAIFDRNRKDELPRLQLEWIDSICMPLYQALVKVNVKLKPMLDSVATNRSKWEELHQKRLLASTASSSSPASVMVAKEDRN
Method: Method 3: Human Recombinant PDE11 Enzyme Inhibition Scintillation Proximity Assay (SPA)
PDE11 Expression and Purification:
Incubate at 27° C. with 220 rpm shaking for 48 hours. Harvest the infected cells by pelleting at 2000 rpm for 10 minutes at 4° C. Store the infected cell pellet at −80° C. until ready for purification. Resuspend the thawed cell pellets to 1×10^7 cells/ml (=20 ml buffer consisting of 20 mM Hepes (pH7.2), 1 mM EDTA, 20 mM sucrose, 150 mM NaCl and protease inhibitor tablets). Mix thoroughly and allow to stand on ice for 10 minutes. Sonicate for 5×5 seconds, on ice. Spin the mixture at 12,000 rpm for 10 minutes at 4° C. in SS34. Store the insoluble pellet at −80° C., and proceed to the purification of the soluble material. • (b) Purification: Prepare the column (1.0 cm diameter, Kontes) by rinsing the empty column twice with TBS. Then mix beads (Anti-FLAG M2 Agarose, Sigma) with TBS and add to the column—allow the beads to settle. Wash the column with 3 column volumes of 0.1M glycine (pH3.5). […] Apply the extract to the column and allow the extract to enter by gravity flow. Reapply the flow-through. Wash the column with 15 column volumes of TBS. Elute the protein with 5×1 ml aliquots of FLAG peptide (Sigma) (i.e., 100 ug/ml in TBS). Elute the remaining protein with 1 ml 0.1M glycine, and immediately add 25 ul 1M Tris pH8 to neutralize. Method 3A: Alternative Human Recombinant PDE11 Enzyme Inhibition Scintillation Proximity Assay (SPA)

PDE6 enzyme = conditions: read-out: METHOD 2: PDE6 IC50; Table F, WO2004096810 examples
Excerpt: Method 2: Human Retina PDE6 Enzyme Inhibition Scintillation Proximity Assay (SPA)
The inhibition of PDE6 enzyme activity by a test compound can be measured in accordance with the in vitro assay of Method 1, but instead using semi-purified PDE6 enzyme isolated from human, bovine or canine retina in place of PDE5 enzyme. […] [3H]GMP binds to yttrium silicate SPA beads and is detected by scintillation counting. • PDE6 Purification: PDE6 can be isolated and purified from the following: Soluble rod PDE6/Rod Outer Segment PDE6 from Bovine eyes (Charles River Ltd, France); Cone PDE6 from Canine eyes (LAS); or Soluble rod and Cone PDE6 from Human eyes (I.I.A.M.).
While supporting the eye with the cornea uppermost, make a small incision through the conjunctiva below the level of the iris. The incision should be sufficient to allow the humor to escape through the cut. Using fine scissors, cut around the cornea to enable it to be lifted off as a flap. Using a small hook, engage the lens and gently pull it out of orbit, taking care not to pull out the retina at the same time. Allow the retina to drop down of its own accord to the base of the orbit.
Lift the retina with care and locate the optic nerve. Cut through the optic nerve and transfer the retina to a small dish containing a few ml of homogenisation buffer. Gently float the retina out on the surface of the buffer and remove any obvious pigmented material from the iris. Place the retina in a second dish with clean buffer to remove last traces of pigment and then transfer to a 50 ml Corning Costar centrifuge tube (Sigma) and keep on ice. • PDE6 Isolation and Purification from Retina: Allow 2 mls of the homogenisation buffer per bovine retina and 1 ml per retina for dog and human. Homogenise using hand-held homogeniser 3×5 second bursts cooling on ice between each burst. Filter homogenate through two layers of surgical gauze. Spin at 100,000 g for 60 minutes at 4° C. […] Run through FPLC (Pharmacia FPLC LKB/FRAC-100, Pharmacia) or aliquot and store in liquid nitrogen as needed. Method 2A: Alternative Human Retina PDE6 Enzyme Inhibition Scintillation Proximity Assay (SPA)

PDE5 enzyme = target: T2, PDE5 enzyme (Homo sapiens, UniProt O76074); assay: Method 1A: Alternative Human Platelet PDE5 Enzyme Inhibition Scintillation Proximity Assay; assay type: biochemical; conditions: METHOD 1a: PDE5 IC50, Table D, WO2004096810 examples
T2 construct: The PDE5 enzyme isolated from human platelets; from tissue; host or cells: human platelets
Method: Method 1A: Alternative Human Platelet PDE5 Enzyme Inhibition Scintillation Proximity Assay
PDE5 IC50 Assay: 96-Well Microtiter Plate Format
• Buffer A: 20 mM Tris-HCl, 5 mM MgCl2, pH 7.4 • Buffer B: 2 mg/ml BSA in Buffer A (enzyme buffer) • cGMP substrate: Final concentration of 50 nM in assay The amount of ^3H-labeled substrate added depends upon the specific activity of [^3H]cGMP, and it is diluted in Buffer A. • PDE enzyme: Prepared in Buffer B. The dilution factor is determined by enzyme activity. • SPA beads: 4 mg/ml suspension prepared in dH2O.
Stocks of standard and test compound are prepared at 2 mM in 100% DMSO. […] 27 μl of Buffer A are added to the wells of the assay plates. From the dilution plate, 3 μl of diluted compound is delivered in duplicate or 3 μl of 100% DMSO (for positive and negative controls) are added. 30 μl of enzyme are added. For the negative control wells, Buffer B is substituted in place of the enzyme. 30 μl of labeled substrate are added to all wells.
After incubating for 60 minutes at room temperature, the reaction is stopped with the addition of 30 μl of the yttrium silicate beads. These beads are dense and require constant agitation while being added to the plate. The plates are sealed and shaken on a plate shaker for fifteen minutes to allow the beads to bind the GMP product.
After allowing the beads to settle for 30 minutes, plates are read on a NXT TopCount scintillation counter and the data are analyzed as follows. Percent inhibition values are calculated using the means of the 0% and 100% controls on each plate. The estimates of the 4-parameters of the logistic, sigmoid dose-response model are then calculated using the well-level percent inhibition value for the compound.

Row | Compound | pIC50 (PDE11 enzyme) | pIC50 (PDE6 enzyme) | pIC50 (PDE5 enzyme)
1 | Cc1ccnc(Nc2nc(N3CCC(C(=O)O)CC3)nc3c(C)nn(CCOCC(F)(F)F)c23)c1 [WO2004096810 Example 261] | 6.37 | 7.23 | 9.94
2 | Cc1cc(Nc2nc(N3CCC(C(=O)O)CC3)nc3c(C)nn(CCOCC(F)(F)F)c23)ncn1 [WO2004096810 Example 262] | 6.33 | 7.32 | 10.12
3 | CCc1nn(CCOCC(F)(F)F)c2c(Nc3cc(C)ncn3)nc(N3CCC(C(=O)O)CC3)nc12 [WO2004096810 Example 263] | 6.50 | 7.60 | 10.71
